# Assays:
# NatL2 [1] = target: T1, NatL2 (Streptomyces sp. Tu 6176, UniProt A0A022MRT4); assay: X-ray crystallography (soaked crystal); format: binding
# T1 construct: N-terminal hexahistidine-tagged, expressed in E. coli; homodimer, structural Zn2+; residues 5-436 traced (C-terminal extension 405-436)
# T1 sequence (A0A022MRT4 1-436): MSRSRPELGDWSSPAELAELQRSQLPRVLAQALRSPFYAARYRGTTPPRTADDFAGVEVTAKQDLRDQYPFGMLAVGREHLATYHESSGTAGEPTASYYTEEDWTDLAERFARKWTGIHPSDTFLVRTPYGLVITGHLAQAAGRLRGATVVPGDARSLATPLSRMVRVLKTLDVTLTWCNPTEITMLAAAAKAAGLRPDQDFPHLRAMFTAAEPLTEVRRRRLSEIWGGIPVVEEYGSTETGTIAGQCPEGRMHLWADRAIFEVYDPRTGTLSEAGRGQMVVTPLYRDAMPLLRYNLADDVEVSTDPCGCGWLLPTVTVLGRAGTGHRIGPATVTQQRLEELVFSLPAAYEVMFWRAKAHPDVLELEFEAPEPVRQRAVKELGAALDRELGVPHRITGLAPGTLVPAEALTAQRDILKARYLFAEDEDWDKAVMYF
# NatL2 [2] = target: T1, NatL2; assay: X-ray crystallography, […] Å; format: binding; settings: crystallised in the presence of ATP; density modelled as AMP; Lys418 from other monomer
smiles,measurement,setting,value
Nc1ncnc2c1ncn2[C@@H]1O[C@H](COP(=O)(O)OP(=O)(O)NP(=O)(O)O)[C@@H](O)[C@H]1O [AMPPNP],X-ray crystallography (soaked crystal),"NatL2 [1]; nucleotide site, binary complex and ternary with 3-HAA, no Mg2+ density",These crystals were soaked with AMPPNP and the resulting complex was essentially identical
Nc1ncnc2c1ncn2[C@@H]1O[C@H](COP(=O)(O)O)[C@@H](O)[C@H]1O [AMP],"X-ray crystallography, 1.9 Å",NatL2 [2],Residual electron density in both monomers was best modelled as AMP not ATP
O=C(O)c1ccccc1O [SA],X-ray crystallography (soaked crystal),"NatL2 [1]; soak of AMP:3-HAA crystals, two SA molecules in subunit A, no AMP, SA1 in 3-HAA1 pocket, SA2 in second substrate pocket, not turned over","In subunit A, two molecules of SA are bound but no AMP"

# From article PMC7204872, “The Biosynthesis of the Benzoxazole in Nataxazole Proceeds via an Unstable Ester and has Synthetic Utility” (Angewandte Chemie (International Ed. in English), 2020)
